Test results: patent US20070264349A1, “Nano-structured compositions and methods of making and using the same” (Novavax, Inc., priority 2006, published 2007)

How the values were obtained:
[1] = cited from earlier work
[2] = Particle size measurement (Coulter particle sizer LS230); type: physicochemical; conditions: for mean size of nanoemulsion droplets comprising the active ingredient: after high-pressure homogenization, 10,000 psi (Examples 1, 2, 4); for particle size of a significant portion / almost all of the particles: formulations comprising ethanol (Tables 5 and 6), FIG. 10, FIG. 11; for mean particle size of raw active ingredient: before particle size reduction
Text: A Coulter particle sizer LS230 was used to measure particle size.

[3] = after high-pressure homogenization (Examples 1, 4, 7)
[4] = after high-pressure homogenization, 10,000 psi (Examples 5, 6, 7)

Molecule: CN1CCCC1c1cccnc1 (stereo not drawn) [Nicotine, S-3-(1-methyl-2-pyrrolidinyl) pyridine]
- solubility in water [1]: freely water-soluble

Molecule: Nc1nc2c(ncn2COCCO)c(=O)[nH]1 [acyclovir, 2-amino-1,9-dihydro-9-[(2-hydroxyethoxy)methyl]-6H-purin-6-one]
- solubility in water [1]: moderately soluble
- size below which 100% of the particles lie [2, 3]: less than 3 microns
- mean size of nanoemulsion droplets comprising the active ingredient [2]: 132 nm
- milled mean particle size [2, 4]: about 2 microns
- size below which 100% of the particles lie ([2]; after particle size reduction (FIG. 2, FIG. 4)): less than 3 μm
- particle size of a significant portion of the particles ([2]; formulation comprising N-methyl-pyrrolidinone (Table 4), FIG. 9, bimodal): less than 0.4 microns
- particle size of a significant portion / almost all of the particles [2]: less than 0.1 microns
- mean particle size of raw active ingredient [2]: 54 μm

Molecule: NCCCC(O)(P(=O)(O)O)P(=O)(O)O [alendronic acid]
- milled mean particle size ([2]; after high-pressure homogenization, 10,000 psi (Example 3)): about 0.2 μm
- mean particle size of raw active ingredient [2]: 190-210 μm

Molecule: C[C@]12CC[C@@H]3c4ccc(O)cc4CC[C@H]3[C@@H]1CC[C@@H]2O [estradiol, estra-1,3,5(10)-triene-3,17β-diol]
- mean size of nanoemulsion droplets comprising the active ingredient [2]: about 93 nm
- mean particle size of raw active ingredient [2]: about 542 microns

Molecule: O=C(c1ccc(OCCN2CCCCC2)cc1)c1c(-c2ccc(O)cc2)sc2cc(O)ccc12 [raloxifene]
- solubility in water [1]: very slightly soluble
- size below which 100% of the particles lie [2, 3]: below 10 microns
- milled mean particle size [2, 4]: 2.79 microns
- mean particle size of raw active ingredient [2]: 15-30 μm

Molecule: [R—[R*,R*-(E)]]-cyclic(L-alanyl-D-alanyl-N-methyl-L-leucyl-N-methyl-L-leucyl-N-methyl-L-valyl-3-hydroxy-N, 4-dimethyl-L-2-amino-6-octenoyl-L-α-amino-butyryl-N-methylglycyl-N-methyl-L-leucyl-L-valyl-N-methyl-L-leucyl) [cyclosporine]
- particle size of a significant portion / almost all of the particles [2]: less than 1 microns
